Laboratory results: PMC10066365, “Nemacol is a small molecule inhibitor of C. elegans vesicular acetylcholine transporter with anthelmintic potential” (Nature Communications, 2023)
Like-named read-outs stand apart in the source and are kept apart here.

How the values were obtained:
[1] = system: Dirofilaria immitis microfilariae; assay: Dirofilaria immitis microfilariae immobility assay (DiroImager, 72 h); details: Dirofilaria immitis microfilariae
Outline: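 About 250 freshly purified microfilariae of the Missouri isolate per well in supplemented RPMI 1640, exposed to compound for 72 h. Motility scored by automated whole-plate optical imaging; medium with 1% DMSO as negative control.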

C. elegans = C. elegans motor phenotype scoring on solid media (Punc/jerky-unc, coiled, paralyzed), wild-type young adults; type: in vivo, Caenorhabditis elegans
Pristionchus pacificus = Pristionchus pacificus motor disruption dose-response on solid media, 1 h; details: for mean % any phene (coiled, jerky-Unc or paralyzed): Pristionchus pacificus young adults, mean of three biological replicates; for rep 1 atypical locomotion / rep 1 coiled / rep 1 no phene / rep 1 paralyzed / rep 2 atypical locomotion / rep 2 coiled / rep 2 no phene / rep 2 paralyzed: count of 20 animals per trial, one hour
[2] = system: Dirofilaria immitis L3/L4; assay: Dirofilaria immitis L3/L4 motility assay (DiroImager, 72 h); details: Dirofilaria immitis L4
rat VAChT = molecular target: T1, rat VAChT (Rattus norvegicus, UniProt Q62666); assay: [3H]Vesamicol competitive radioligand binding, PC12 cells expressing ratVAChT; details: [3H]Vesamicol binding
T1 construct: expressed in transfected cells; host or cells: rat PC12 (PC12 A123.7) cells, stably transfected; shared by Dr. Ali Roghani (Texas Tech University)
T1 sequence (Q62666 1-530): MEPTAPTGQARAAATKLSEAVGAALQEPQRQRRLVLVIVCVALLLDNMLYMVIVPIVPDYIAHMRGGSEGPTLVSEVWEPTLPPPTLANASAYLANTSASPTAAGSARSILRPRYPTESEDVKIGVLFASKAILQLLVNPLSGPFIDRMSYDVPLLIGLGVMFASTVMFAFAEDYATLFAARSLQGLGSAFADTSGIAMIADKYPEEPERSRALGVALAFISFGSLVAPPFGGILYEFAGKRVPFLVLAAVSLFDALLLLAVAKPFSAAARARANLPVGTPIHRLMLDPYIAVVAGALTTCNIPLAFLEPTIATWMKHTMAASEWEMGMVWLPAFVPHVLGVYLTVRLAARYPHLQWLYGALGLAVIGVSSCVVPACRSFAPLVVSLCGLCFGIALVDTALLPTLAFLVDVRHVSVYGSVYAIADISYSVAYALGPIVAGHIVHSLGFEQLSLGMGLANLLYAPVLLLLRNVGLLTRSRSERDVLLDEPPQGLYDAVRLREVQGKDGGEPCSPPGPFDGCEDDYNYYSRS

SMILES: Clc1ccc(N2CCN(CC3CC4C=CC3C4)CC2)cc1 (centres unmarked) [Nemacol-46]
- % effect (motility), DIROIM MF ([1]; 0.016 µM): 0%
- % effect (motility), DIROIM MF ([1]; 0.08 µM): 0%
- % effect (motility), DIROIM MF ([1]; 0.4 µM): 0%
- % effect (motility), DIROIM MF ([1]; 2 µM): 0%
- % effect (motility), DIROIM MF ([1]; 10 µM): 0%
- any phene (mean % fraction of young adults exhibiting any phenotype: coiled, jerky-Unc or paralyzed) (C. elegans; 3.75uM, one hour, mean of three biological replicates, third c14 line of each analog): 89.1667%
- EC50 (C. elegans; Caenorhabditis elegans, any motor phenotype after 1 h on solid media, ± 95% CI, read-out: C. elegans - motor disruption EC50): 2300 nM
- mean % any phene (coiled, jerky-Unc or paralyzed) (Pristionchus pacificus; conc 3.75, observed at one hour): 41.6667%
- mean % any phene (coiled, jerky-Unc or paralyzed) (Pristionchus pacificus; conc 15, observed at one hour): 58.3333%
- mean % any phene (coiled, jerky-Unc or paralyzed) (Pristionchus pacificus; conc 60, observed at one hour): 84.1667%
- EC50 (Pristionchus pacificus; Pristionchus pacificus, 1 h, read-out: P. pacificus motor disruption EC50): 7000 ± 2400 nM
- rep 1 atypical locomotion (Pristionchus pacificus; conc 3.75): 0
- rep 1 coiled (Pristionchus pacificus; conc 3.75): 0
- rep 1 no phene (Pristionchus pacificus; conc 3.75): 20
- rep 1 paralyzed (Pristionchus pacificus; conc 3.75): 0
- rep 2 atypical locomotion (Pristionchus pacificus; conc 3.75): 4
- rep 2 coiled (Pristionchus pacificus; conc 3.75): 0
- rep 2 no phene (Pristionchus pacificus; conc 3.75): 16
- rep 2 paralyzed (Pristionchus pacificus; conc 3.75): 0
- rep 1 atypical locomotion (Pristionchus pacificus; conc 15): 11
- rep 1 coiled (Pristionchus pacificus; conc 15): 4
- rep 1 no phene (Pristionchus pacificus; conc 15): 4
- rep 1 paralyzed (Pristionchus pacificus; conc 15): 1
- rep 2 atypical locomotion (Pristionchus pacificus; conc 15): 0
- rep 2 coiled (Pristionchus pacificus; conc 15): 8
- rep 2 no phene (Pristionchus pacificus; conc 15): 0
- rep 2 paralyzed (Pristionchus pacificus; conc 15): 12
- rep 1 atypical locomotion (Pristionchus pacificus; conc 60): 4
- rep 1 coiled (Pristionchus pacificus; conc 60): 6
- rep 1 no phene (Pristionchus pacificus; conc 60): 0
- rep 1 paralyzed (Pristionchus pacificus; conc 60): 10
- rep 2 atypical locomotion (Pristionchus pacificus; conc 60): 0
- rep 2 coiled (Pristionchus pacificus; conc 60): 8
- rep 2 no phene (Pristionchus pacificus; conc 60): 0
- rep 2 paralyzed (Pristionchus pacificus; conc 60): 12
- % effect (motility), DIROIM L4 ([2]; 2 µM): 0%
- % effect (motility), DIROIM L4 ([2]; 10 µM): 5%
- % effect (motility), DIROIM L4 ([2]; 50 µM): 25%
- Ki (rat VAChT; PC12, experiment 1, read-out: expt 1 Ki (M) vs. rat VAChT (PC12)): 9.16e-08 M
- Ki (rat VAChT; PC12, experiment 2, read-out: expt 2 Ki (M) vs. rat VAChT (PC12)): 7.54e-08 M
- Ki (rat VAChT; rat VAChT (PC12), mean of 2-3 experiments, read-out: mean Ki): 8.35e-08 M
